Measured values taken from PubChem BioAssay AID330 (DTP/NCI, 2004).
Several values for one entry are separate records, joined by “and”; a condition that tells them apart may be missing. Identical values can stand only once. Inconclusive results and toxic doses are left out. The calls were made as follows: active = survival T/C of 150% or more; inactive = T/C below 125% in these data.

System: P388 leukemia ip, CD2F1 mice, survival T/C
Assay: NCI In Vivo Anticancer Drug Screen. Data for tumor model P388 Leukemia (intraperitoneal) in CD2F1 (CDF1) mice
Details: endpoint: median survival time, higher = longer survival
Method in brief: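 Mice carrying the transplanted tumor received test compound or vehicle. Survival was recorded in each group, and the value is the treated-group measurement divided by that of the vehicle-treated control group.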

[1] = dose: 60.0 mg/kg/injection, schedule: Q01DX005 (ip), vehicle: saline with Tween-80
[2] = dose: 120.0 mg/kg/injection, schedule: Q01DX005 (ip), vehicle: saline with Tween-80
[3] = dose: 240.0 mg/kg/injection, schedule: Q01DX005 (ip), vehicle: saline with Tween-80
[4] = dose: 50.0 mg/kg/injection, schedule: Q01DX005 (ip), vehicle: saline with Tween-80
[5] = dose: 200.0 mg/kg/injection, schedule: Q01DX005 (ip), vehicle: saline with Tween-80
[6] = dose: 100.0 mg/kg/injection, schedule: Q01DX005 (ip), vehicle: saline with Tween-80
[7] = dose: 50.0 mg/kg/injection, schedule: Q01DX005 (ip), vehicle: Klucel (hydroxypropylcellulose) (HPC)
[8] = dose: 100.0 mg/kg/injection, schedule: Q01DX005 (ip), vehicle: Klucel (hydroxypropylcellulose) (HPC)
[9] = dose: 200.0 mg/kg/injection, schedule: Q01DX005 (ip), vehicle: Klucel (hydroxypropylcellulose) (HPC)
[10] = dose: 50.0 mg/kg/injection, schedule: Q01DX009 (ip), vehicle: saline with Tween-80
[11] = dose: 100.0 mg/kg/injection, schedule: Q01DX009 (ip), vehicle: saline with Tween-80

Measured: T/C

Cn1nnc2c(Cl)nccc21
inactive: dose: 100.0 mg/kg/injection, schedule: Q04DX002 (ip), vehicle: saline 105 % of control | dose: 200.0 mg/kg/injection, schedule: Q04DX002 (ip), vehicle: saline 100 % of control | dose: 400.0 mg/kg/injection, schedule: Q04DX002 (ip), vehicle: saline 102 % of control

Cc1cc(O)cc2c1c(=O)c1ccccc1n2C
inactive: [1] 100 % of control | [2] 100 % of control | [3] 96 % of control

N#CC(c1ccccc1)(N1CCOCC1)N1CCOCC1
inactive: dose: 6.25 mg/kg/injection, schedule: Q04DX003 (ip), vehicle: saline 101 % of control and 97 % of control | dose: 12.5 mg/kg/injection, schedule: Q04DX003 (ip), vehicle: saline 100 % of control and 101 % of control | dose: 25.0 mg/kg/injection, schedule: Q04DX003 (ip), vehicle: saline 100 % of control and 101 % of control (2×) | dose: 100.0 mg/kg/injection, schedule: Q04DX003 (ip), vehicle: saline with Tween-80 100 % of control

O=C(O)CCC(NC(=O)c1ccc(N(CCCO)CC2CNc3nc(NCCCO)[nH]c(=O)c3N2CCCO)cc1)C(=O)O (stereo unspecified)
inactive: dose: 50.0 mg/kg/injection, schedule: Q04DX003 (ip), vehicle: alkali diluted with saline 98 % of control | dose: 100.0 mg/kg/injection, schedule: Q04DX003 (ip), vehicle: alkali diluted with saline 109 % of control | dose: 200.0 mg/kg/injection, schedule: Q04DX003 (ip), vehicle: alkali diluted with saline 98 % of control

O=C(Oc1ccc(C2c3cc(OC(=O)c4ccccc4)c(OC(=O)c4ccccc4)cc3CC3C(=O)OCC32)cc1OC(=O)c1ccccc1)c1ccccc1 (stereo unspecified)
inactive: [4] 88 % of control | [5] 86 % of control

NC(=S)n1nc(-c2ccccc2)c(N=Nc2ccccc2Cl)c1-c1ccccc1
inactive: [4] 117 % of control | [6] 111 % of control | [5] 108 % of control

COC(=O)/C(=C/C=C/c1ccccc1)N=[N+]=[N-]
inactive: dose: 100.0 mg/kg/injection, schedule: Q01DX001 (ip), vehicle: saline with Tween-80 114 % of control | dose: 200.0 mg/kg/injection, schedule: Q01DX001 (ip), vehicle: saline with Tween-80 105 % of control | dose: 400.0 mg/kg/injection, schedule: Q01DX001 (ip), vehicle: saline with Tween-80 100 % of control

COc1ccc2c(c1)OC(C)(C)C(c1ccccc1)C2c1ccc(OCCBr)c([N+](=O)[O-])c1 (stereo unspecified)
inactive: [7] 101 % of control | [8] 105 % of control | [9] 97 % of control

COc1ccc2c(=O)cc(-c3ccccc3)[nH]c2c1
inactive: dose: 12.5 mg/kg/injection, schedule: Q01DX009 (ip), vehicle: saline 90 % of control | dose: 25.0 mg/kg/injection, schedule: Q01DX009 (ip), vehicle: saline 98 % of control | dose: 50.0 mg/kg/injection, schedule: Q01DX009 (ip), vehicle: saline 114 % of control | dose: 65.0 mg/kg/injection, schedule: Q01DX009 (ip), vehicle: saline 118 % of control | dose: 100.0 mg/kg/injection, schedule: Q01DX009 (ip), vehicle: saline 117 % of control and 118 % of control | dose: 200.0 mg/kg/injection, schedule: Q01DX009 (ip), vehicle: saline 99 % of control

CCc1c(C)sc(=S)n1C(C)C(=O)OC (stereo unspecified)
inactive: [4] 98 % of control | [6] 106 % of control | [5] 107 % of control

CS(=O)(=O)OCCF
inactive: dose: 0.78 mg/kg/injection, schedule: Q01DX009 (ip), vehicle: saline with Tween-80 97 % of control | dose: 1.56 mg/kg/injection, schedule: Q01DX009 (ip), vehicle: saline with Tween-80 100 % of control | dose: 3.12 mg/kg/injection, schedule: Q01DX009 (ip), vehicle: saline with Tween-80 103 % of control | dose: 3.96 mg/kg/injection, schedule: Q04DX003 (ip), vehicle: saline 109 % of control | dose: 6.0 mg/kg/injection, schedule: Q04DX003 (ip), vehicle: saline 104 % of control | dose: 6.25 mg/kg/injection, schedule: Q01DX009 (ip), vehicle: saline with Tween-80 105 % of control and 111 % of control | dose: 9.0 mg/kg/injection, schedule: Q04DX003 (ip), vehicle: saline 118 % of control | dose: 12.5 mg/kg/injection, schedule: Q01DX009 (ip), vehicle: saline with Tween-80 89 % of control

CC1(Cc2c(N)[nH]c(=S)[nH]c2=O)OCCO1
inactive: [4] 105 % of control | [6] 110 % of control | [5] 110 % of control

C=C1C(=O)OC2/C=C(\C)CC/C=C(/C=O)C(O)C(OC(=O)C(C)C)C12 (stereo unspecified)
inactive: dose: 5.0 mg/kg/injection, schedule: Q01DX009 (ip), vehicle: other 112 % of control | dose: 20.0 mg/kg/injection, schedule: Q01DX009 (ip), vehicle: other 94 % of control

Nc1nccc(CC(O)(c2ccccc2)c2ccccc2)n1
inactive: dose: 15.0 mg/kg/injection, schedule: Q01DX005 (ip), vehicle: saline with Tween-80 102 % of control | dose: 30.0 mg/kg/injection, schedule: Q01DX005 (ip), vehicle: saline with Tween-80 102 % of control | [1] 99 % of control and 100 % of control | [2] 95 % of control | [3] 87 % of control

O=Nc1c(O)c2ccccc2c2ccccc12
inactive: dose: 25.0 mg/kg/injection, schedule: Q01DX005 (ip), vehicle: Klucel (hydroxypropylcellulose) (HPC) 102 % of control | [7] 102 % of control | [8] 112 % of control

CC(C)(C)NC1/C(=C\c2ccccc2)C(=O)c2ccccc2C1(C)C (stereo unspecified)
inactive: dose: 25.0 mg/kg/injection, schedule: Q01DX009 (ip), vehicle: other 109 % of control | dose: 50.0 mg/kg/injection, schedule: Q01DX009 (ip), vehicle: other 101 % of control | dose: 100.0 mg/kg/injection, schedule: Q01DX009 (ip), vehicle: other 110 % of control | dose: 200.0 mg/kg/injection, schedule: Q01DX009 (ip), vehicle: other 124 % of control

CC(C)NS(=O)(=O)OCC(O)(CC(Cl)(Cl)Cl)c1ccccc1 (stereo unspecified)
inactive: [10] 105 % of control | [11] 109 % of control and 112 % of control | dose: 200.0 mg/kg/injection, schedule: Q01DX009 (ip), vehicle: saline with Tween-80 105 % of control

O=C(CCl)N1CC2CCC(CC2)C1
inactive: [10] 102 % of control | [11] 91 % of control

O=C1NC(c2ccccc2)(c2ccccc2)C(=O)N1CN1CC=CCC1
inactive: dose: 60.0 mg/kg/injection, schedule: Q01DX005 (ip), vehicle: Klucel (hydroxypropylcellulose) (HPC) 103 % of control | dose: 120.0 mg/kg/injection, schedule: Q01DX005 (ip), vehicle: Klucel (hydroxypropylcellulose) (HPC) 108 % of control | dose: 240.0 mg/kg/injection, schedule: Q01DX005 (ip), vehicle: Klucel (hydroxypropylcellulose) (HPC) 97 % of control

Nc1nnc(-c2ccccc2)nn1
inactive: dose: 50.0 mg/kg/injection, schedule: Q01DX005 (ip), vehicle: Klucel + Tween-80 91 % of control | dose: 100.0 mg/kg/injection, schedule: Q01DX005 (ip), vehicle: Klucel + Tween-80 95 % of control | dose: 200.0 mg/kg/injection, schedule: Q01DX005 (ip), vehicle: Klucel + Tween-80 100 % of control

NC(CCS(=O)(=O)NCCCl)C(=O)O (stereo unspecified)
inactive: dose: 12.5 mg/kg/injection, schedule: Q01DX009 (ip), vehicle: water 103 % of control | dose: 25.0 mg/kg/injection, schedule: Q01DX009 (ip), vehicle: water 105 % of control | dose: 50.0 mg/kg/injection, schedule: Q01DX009 (ip), vehicle: water 104 % of control | dose: 100.0 mg/kg/injection, schedule: Q01DX009 (ip), vehicle: water 102 % of control | dose: 200.0 mg/kg/injection, schedule: Q01DX009 (ip), vehicle: water 105 % of control

CNC(=S)N/N=C\C(C)=N/Nc1ccc(F)cc1
inactive: dose: 100.0 mg/kg/injection, schedule: Q04DX003 (ip), vehicle: saline 99 % of control | dose: 200.0 mg/kg/injection, schedule: Q04DX003 (ip), vehicle: saline 99 % of control | dose: 400.0 mg/kg/injection, schedule: Q04DX003 (ip), vehicle: saline 94 % of control

CC(C)(C#N)OC(=O)Nc1c(Cl)cccc1Cl
inactive: [1] 100 % of control | [2] 98 % of control | [3] 94 % of control

COC(=O)C(=O)C1(c2nc3n(c2O)/C(=N/C(=O)Nc2ccc(Cl)cc2)N=N3)CCCCCC1=O (stereo unspecified)
inactive: [1] 100 % of control | [2] 99 % of control | [3] 94 % of control

CCOC(=O)Nc1ccc2c3c(cccc13)-c1ccccc1-2
inactive: [7] 90 % of control | [8] 97 % of control | [9] 91 % of control
